Experimental data from patent US10918633B2, “Method of treating coronavirus” (MyMD Pharmaceuticals, Inc., priority 2015, dated 2021).
Entries after “also recorded” stand apart in the source; their conditions may differ.

Legend:
MAO-A = molecular target: T1, MAO-A (Homo sapiens, UniProt P21397); assay: MAO-Glo luminescent assay, MAO-A inhibition; assay type: biochemical; conditions: FIG. 1
T1 construct: purchased
T1 sequence (P21397 1-527): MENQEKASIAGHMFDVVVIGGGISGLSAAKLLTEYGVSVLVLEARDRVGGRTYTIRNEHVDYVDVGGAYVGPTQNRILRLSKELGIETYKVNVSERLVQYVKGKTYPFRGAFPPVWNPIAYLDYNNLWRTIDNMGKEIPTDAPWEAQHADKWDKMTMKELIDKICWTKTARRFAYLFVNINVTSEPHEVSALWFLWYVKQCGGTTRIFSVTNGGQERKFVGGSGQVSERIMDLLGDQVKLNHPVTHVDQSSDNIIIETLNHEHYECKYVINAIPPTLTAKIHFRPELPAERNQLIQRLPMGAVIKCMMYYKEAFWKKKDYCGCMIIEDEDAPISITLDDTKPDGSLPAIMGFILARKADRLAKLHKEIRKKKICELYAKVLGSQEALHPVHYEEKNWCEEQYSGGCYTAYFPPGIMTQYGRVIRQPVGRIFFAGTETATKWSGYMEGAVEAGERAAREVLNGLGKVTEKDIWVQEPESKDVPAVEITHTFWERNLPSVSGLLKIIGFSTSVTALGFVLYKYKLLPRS
Excerpt: (§1) This example describes experiments for determining monoamine oxidase (MAO) inhibition for isomyosmine and other alkaloids. MAOs are enzymes located on the outer membrane of mitochondria and are involved in the catabolism of monoamine neurotransmitters. There are two well-characterized isoenzymes: MAO-A, which predominantly catabolizes serotonin and norepinephrine, and MAO-B, which preferentially catabolizes benzylamine and phenylethylamine. Dopamine and tyramine are metabolized by both isoforms.
(§2) To detect the activity of MAO, a luminescent method (MAO-Glo Assay kit, from Promega, Cat #V1401) was used. In this method, a MAO substrate (a derivative of beetle luciferin provided in the kit) is mixed with the compound to be tested (in this case, myosmine and control compounds). Then, the MAO enzymes (either A or B, purchased separately) are added to the mixture and incubated with the reaction for 1 hour at room temperature. The MAO enzymes, if not inhibited by the test compound, will convert the substrate into methyl ester luciferin. Finally, a luciferin detection reagent (provided by the kit) is added (20 minutes at room temperature) to stop the MAO reaction and convert methyl ester luciferin into D-luciferin. […] The luminescent signal is measured and recorded using a luminometer. […]

[1] = tested on: purified nitrate reductase; assay: Cell-free nitrate reductase inhibition, Griess reaction; assay type: biochemical
Experimental: Standard concentrations of nitrate were incubated with purified nitrate reductase and vehicle or isomyosmine, and the Griess reaction was used to measure nitrite. Several concentrations of nitrate and two concentrations of isomyosmine were used.

hydrogen sulfide (H2S) = assay: Serum hydrogen sulfide (H2S) by ELISA in mice with EAE; assay type: in vivo; conditions: 5 mg/ml isomyosmine in water, FIG. 3A-3B
Experimental: This example describes an experiment to determine whether treatments with isomyosmine have an effect on hydrogen sulfide (H2S) quantity in mice with experimental autoimmune encephalomyelitis (EAE). Mice were immunized for EAE on day 0 and treated with either vehicle control or 5 mg/ml isomyosmine in water, for the duration of the experiment. Blood was collected, serum was separated and assayed for H2S via Kamiya Biomedical ELISA kit per the manufacturer's instructions. Two different experiments were performed. In the first experiment, blood was collected at the end of disease course. In the second experiment, blood was collected at day 12 after immunization.

MAO-B = molecular target: T2, MAO-B (Homo sapiens, UniProt P27338); assay: MAO-Glo luminescent assay, MAO-B inhibition; assay type: biochemical; conditions: compared with myosmine, anatabine, anabasine, nornicotine; FIG. 2
T2 construct: purchased
T2 sequence (P27338 1-520): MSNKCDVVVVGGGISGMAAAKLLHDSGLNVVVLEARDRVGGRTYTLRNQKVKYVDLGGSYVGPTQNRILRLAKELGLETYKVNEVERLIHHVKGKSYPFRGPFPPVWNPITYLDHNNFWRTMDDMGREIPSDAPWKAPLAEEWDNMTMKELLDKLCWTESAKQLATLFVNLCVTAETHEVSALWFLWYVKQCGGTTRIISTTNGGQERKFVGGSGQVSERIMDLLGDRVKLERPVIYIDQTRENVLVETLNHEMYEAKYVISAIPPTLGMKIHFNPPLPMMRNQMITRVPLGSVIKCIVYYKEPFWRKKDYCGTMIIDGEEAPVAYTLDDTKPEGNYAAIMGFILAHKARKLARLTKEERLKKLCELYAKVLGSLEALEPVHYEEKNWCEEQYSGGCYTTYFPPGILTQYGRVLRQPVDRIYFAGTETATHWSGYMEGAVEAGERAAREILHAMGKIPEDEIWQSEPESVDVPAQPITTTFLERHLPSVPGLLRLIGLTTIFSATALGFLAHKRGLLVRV
Excerpt: as §1, §2

[2] = tested on: herpes labialis (cold sores), a type of herpes simplex; assay: Treatment of herpes labialis (cold sores) in an individual; assay type: in vivo, human; conditions: 100 mg dose upon first feeling the onset of a cold sore
Experimental: This example illustrates administering isomyosmine to treat herpes labialis (cold sores), a type of herpes simplex occurring on the lip. An individual who experiences periodic outbreaks of herpes labialis was administered a 100 mg dose of isomyosmine upon first feeling the onset of a cold sore.

SMILES: C1=NC(c2cccnc2)CC1 (centres unmarked) [isomyosmine, 3-(3,4-dihydro-2H-pyrrol-2-yl)-pyridine]
- inhibition at 2000 µM (MAO-A; 2 mM concentration (2,000 micromolar), read-out: inhibition of the enzymatic activity of MAO-A): ~50%
- inhibition of the enzymatic activity of MAO-A (in words, curve position) (MAO-A; compared with myosmine, anatabine, anabasine, nornicotine): most potent of the five; also recorded: potent inhibitor
- inhibition of nitrate reductase ([1]; high amount of substrate, system saturated (FIG. 4C)): inhibitory effect was reduced
- inhibition of nitrate reductase ([1]; low amount of substrate (FIG. 4A)): most efficiently
- H2S in serum as measured by ELISA (hydrogen sulfide (H2S); blood collected at day 12 after immunization): trend toward an increase in H2S
- H2S in serum as measured by ELISA (hydrogen sulfide (H2S); blood collected at the end of disease course): trend toward an increase in H2S
- inhibition of the activity of MAO-B (in words) (MAO-B): most potent among the five alkaloids tested; also recorded: potent inhibitor
- prevention of cold sore outbreak [2]: effective to prevent the outbreak of the cold sore
